From the supplement of paper PMC10307832

Assays:
Assay in all cases: relative viability (nuclei count vs DMSO), 5 days (fraction); higher = more cells survive
Bleomycin + Phenformin = compound: CC1=C(N=C(N=C1N)[C@H](CC(=O)N)NC[C@@H](C(=O)N)N)C(=O)N[C@@H]([C@H](C2=CN=CN2)OC3C(C(C(C(O3)CO)O)O)OC4C(C(C(C(O4)CO)O)OC(=O)N)O)C(=O)N[C@H](C)[C@H]([C@H](C)C(=O)N[C@@H]([C@@H](C)O)C(=O)NCCC5=NC(=CS5)C6=NC(=CS6)C(=O)NCCC[S+](C)C)O [Bleomycin] + N=C(N)NC(=N)NCCc1ccccc1 [Phenformin] (partner 250 µM); details: main component drawn
Summary of the method: (§1)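 Each reported value is a median over duplicate plates. It expresses relative viability: treated-well nuclei count divided by vehicle-well nuclei count. Lung cancer cell lines in 1536-well plates were dosed by pin tool a day after seeding, alone with one drug or with a fixed anchor-drug dose plus five library-drug doses (not always all listed) in √10 steps, and nuclei were counted after 5 days.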

Bleomycin + OSI-027 = compound: CC1=C(N=C(N=C1N)[C@H](CC(=O)N)NC[C@@H](C(=O)N)N)C(=O)N[C@@H]([C@H](C2=CN=CN2)OC3C(C(C(C(O3)CO)O)O)OC4C(C(C(C(O4)CO)O)OC(=O)N)O)C(=O)N[C@H](C)[C@H]([C@H](C)C(=O)N[C@@H]([C@@H](C)O)C(=O)NCCC5=NC(=CS5)C6=NC(=CS6)C(=O)NCCC[S+](C)C)O [Bleomycin] + COc1cccc2cc(-c3nc([C@H]4CC[C@H](C(=O)O)CC4)n4ncnc(N)c34)[nH]c12 [OSI-027] (partner 0.5 µM); details: main component drawn
Summary of the method: as §1

Etoposide + Luminespib = compound: COc1cc([C@@H]2c3cc4c(cc3[C@@H](O[C@@H]3O[C@@H]5CO[C@@H](C)O[C@H]5[C@H](O)[C@H]3O)[C@H]3COC(=O)[C@H]23)OCO4)cc(OC)c1O [Etoposide] + CCNC(=O)c1noc(-c2cc(C(C)C)c(O)cc2O)c1-c1ccc(CN2CCOCC2)cc1 [Luminespib] (partner 0.01 µM)
Summary of the method: as §1

Bleomycin + Olaparib = compound: CC1=C(N=C(N=C1N)[C@H](CC(=O)N)NC[C@@H](C(=O)N)N)C(=O)N[C@@H]([C@H](C2=CN=CN2)OC3C(C(C(C(O3)CO)O)O)OC4C(C(C(C(O4)CO)O)OC(=O)N)O)C(=O)N[C@H](C)[C@H]([C@H](C)C(=O)N[C@@H]([C@@H](C)O)C(=O)NCCC5=NC(=CS5)C6=NC(=CS6)C(=O)NCCC[S+](C)C)O [Bleomycin] + O=C(c1cc(Cc2n[nH]c(=O)c3ccccc23)ccc1F)N1CCN(C(=O)C2CC2)CC1 [Olaparib] (partner 8 µM); details: main component drawn
Summary of the method: as §1

Cell Line: UMC-11
- relative viability (Bleomycin + Phenformin; first compound 0.01 µM): 0.311
- relative viability (Bleomycin + Phenformin; first compound 0.03162 µM): 0.335
- relative viability (Bleomycin + Phenformin; first compound 0.1 µM): 0.29
- relative viability (Bleomycin + Phenformin; first compound 0.3162 µM): 0.283
- relative viability (Bleomycin + Phenformin; first compound 1 µM): 0.233
- relative viability (Bleomycin + OSI-027; first compound 0.01 µM): 0.403
- relative viability (Bleomycin + OSI-027; first compound 0.03162 µM): 0.497
- relative viability (Bleomycin + OSI-027; first compound 0.1 µM): 0.482
- relative viability (Bleomycin + OSI-027; first compound 0.3162 µM): 0.393
- relative viability (Bleomycin + OSI-027; first compound 1 µM): 0.353
- relative viability (Etoposide + Luminespib; first compound 0.01 µM): 1
- relative viability (Etoposide + Luminespib; first compound 0.03162 µM): 1.09
- relative viability (Etoposide + Luminespib; first compound 0.1 µM): 0.783
- relative viability (Etoposide + Luminespib; first compound 0.3162 µM): 0.566
- relative viability (Etoposide + Luminespib; first compound 1 µM): 0.279
- relative viability (Bleomycin + Olaparib; first compound 0.01 µM): 0.36
- relative viability (Bleomycin + Olaparib; first compound 0.03162 µM): 0.342
- relative viability (Bleomycin + Olaparib; first compound 0.1 µM): 0.371
- relative viability (Bleomycin + Olaparib; first compound 0.3162 µM): 0.393
- relative viability (Bleomycin + Olaparib; first compound 1 µM): 0.271
